The target in series [1] is T1, hERG potassium ion channel (Homo sapiens, UniProt Q12809).
T1 construct: expressed in transfected cells; host or cells: CHO (Chinese hamster ovary) cells stably expressing hERG
Description: Effect on hERG potassium ion channel (manual patch-clamp, CHO cells). Type of series: cell-based. The following applies: CHO cells stably expressing hERG, whole cell patch-clamp; read-out: IC50 for inhibitory effect on hERG potassium channel current. From the text: Experimental platform: electrophysiological manual patch-clamp system
Cell line: Chinese hamster ovary (CHO) cell line stably expressing hERG potassium ion channel
Experimental method: In CHO (Chinese Hamster Ovary) cells stably expressing hERG potassium channel, whole cell patch-clamp technique was used to record hERG potassium channel current at room temperature. The glass microelectrode was made of a glass electrode blank (BF150-86-10, Sutter) by a puller. The tip resistance after filling the liquid in the electrode was about 2-5 MQ. The glass microelectrode can be connected to the patch-clamp amplifier by inserting the glass microelectrode into an amplifier probe. The clamping voltage and data recording were controlled and recorded by the pClamp 10 software through a computer. The sampling frequency was 10 kHz, and the filtering frequency was 2 kHz. After the whole cell records were obtained, the cells were clamped at −80 mV, and the step voltage that induced the hERG potassium current (lhERG) was depolarized from −80 mV to +20 mV for 2 s, then repolarized to −50 mV, and returned to −80 mV after 1 s. This voltage stimulation was given every 10 s, and the administration process was started after the hERG potassium current was confirmed to be stable (at least 1 minute). The compound was administered for at least 1 minute at each test concentration, and at least 2 cells (n≥2) were tested at each concentration.
Data processing: Data analysis processing was carried out by using pClamp 10, GraphPad Prism 5 and Excel software. The inhibition degree of hERG potassium current (peak value of hERG tail current induced at −50 mV) at different compound concentrations was calculated by the following formula:
[formula] • where Inhibition % represents the percentage of inhibition of hERG potassium current by the compound, and l and lo represent the amplitude of hERG potassium current after and before the administration, respectively.
Compound IC50 was calculated using GraphPad Prism 5 software by fitting according to the following equation:
[formula] • where X represents the Log value of the tested concentration of the test sample, Y represents the inhibition percentage at the corresponding concentration, and Bottom and Top represent the minimum and maximum inhibition percentage, respectively.
A general note: The hERG channel carries a current that helps repolarise heart muscle cells.

Series [2] can be described thus: Pharmacokinetic test in mice. Type of series: in vivo, ICR mice. The following applies: plasma, i.g. 10 mg/kg. How it is done:
Experimental animals: Male ICR mice, about 25 g, 6 mice/compound, purchased from Chengdu Ddossy Experimental Animals Co., Ltd.
Test design: On the day of the experiment, 6 ICR mice were randomly grouped according to their body weights. The animals were fasted with water available for 12 to 14 h one day before the administration, and were fed 4 h after the administration.
• Vehicle for intravenous administration: 5% DMA+5% Solutol+90% Saline; • Vehicle for intragastric administration: 5% DMSO+30% PEG400+65% (20% SBE-CD); (DMSO: dimethyl sulfoxide; DMA: dimethylacetamide; Solutol: polyethylene glycol-15-hydroxystearate; PEG400: polyethylene glycol 400; SBE-β-CD: sulfobutyl-β-cyclodextrin; Saline: physiological saline)
Before and after the administration, 0.15 mL of blood was taken from the orbit of the animals under isoflurane anesthesia and placed in an EDTAK2 centrifuge tube. The blood was centrifuged at 5000 rpm and 4° C. for 10 min to collect plasma. The blood collection time points for the intravenous administration group and intragastric administration group were 0 min, 5 min, 15 min, 30 min, 1 h, 2 h, 4 h, 7 h and 24 h. Before analysis and detection, all samples were stored at −60° C. The samples were analyzed quantitatively by LC-MS/MS.

Series [3] addresses T2, IRAK4 protein (Homo sapiens, UniProt Q9NWZ3).
T2 construct: endogenous in cells; host or cells: human peripheral blood mononuclear cells (hPBMC) from healthy volunteers
T2 sequence (Q9NWZ3 1-460): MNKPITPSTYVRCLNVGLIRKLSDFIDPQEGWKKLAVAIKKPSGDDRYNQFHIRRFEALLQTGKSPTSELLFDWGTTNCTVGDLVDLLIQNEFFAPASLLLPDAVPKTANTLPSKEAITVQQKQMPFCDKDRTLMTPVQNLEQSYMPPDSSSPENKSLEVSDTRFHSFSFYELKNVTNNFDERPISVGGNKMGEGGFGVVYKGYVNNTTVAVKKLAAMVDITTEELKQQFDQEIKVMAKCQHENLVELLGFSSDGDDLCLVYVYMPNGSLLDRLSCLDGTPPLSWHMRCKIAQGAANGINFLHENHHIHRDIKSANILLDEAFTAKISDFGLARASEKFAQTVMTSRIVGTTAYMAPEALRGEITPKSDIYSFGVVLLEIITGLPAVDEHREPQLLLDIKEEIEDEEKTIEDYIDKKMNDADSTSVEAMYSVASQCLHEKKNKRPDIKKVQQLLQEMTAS
Nature of the series: IRAK4 degradation activity in hPBMC cells (24 hours). The class given is cell-based. How it is done: hPBMC cells are human peripheral blood mononuclear cells. Peripheral venous blood was taken from healthy volunteers, and hPBMCs were isolated using Ficoll density gradient centrifugation (Ficoll-Paque™ PLUS 1.077, GE, Cat. 17-1140-02). Culture conditions: RPMI-1640+10% FBS+1% penicillin-streptomycin solution. The cells were cultured in an incubator at 37° C. and 5% CO2. The cells were plated in a 24-well plate at 1×10^6 cells/well. After plating, compounds at different concentrations were added, and the cells were cultured in an incubator at 37° C. and 5% CO2 for 24 hours. After the culture was completed, the cells were collected, and RIPA lysis buffer (beyotime, Cat. P0013B) was added. The cells were lysed on ice for 20 minutes, and then centrifuged at 12000 rpm at 4° C. for 10 minutes. The protein sample of the supernatant was collected, the protein was quantified using a BCA kit (Beyotime, Cat. P0009), and then the protein was diluted to 1 mg/mL. The expression of IRAK4 (CST, Cat. 4363S) and the internal reference cofilin (CST, Cat. 5175S) were detected using a fully automated western blot quantitative analyzer (Proteinsimple). The expression level of IRAK4 relative to the internal reference was calculated using compass software. The remaining IRAK4 protein IRAK4% relative to the vehicle control group at different doses was calculated using formula (1), and the IRAK4 protein degradation relative to the vehicle control group at different doses was calculated using formula (2), where IRAK4administration was the expression level of IRAK4 in the administration groups at different doses, and IRAK4vehicle was the expression level of IRAK4 in the vehicle control group. An IRAK4 degradation-drug concentration curve was fit using Graphpad Prism 8 software, and the DC50 was calculated.

Where two headings read alike, the source gives them in different places.

T1 sequence (Q12809 whole entry): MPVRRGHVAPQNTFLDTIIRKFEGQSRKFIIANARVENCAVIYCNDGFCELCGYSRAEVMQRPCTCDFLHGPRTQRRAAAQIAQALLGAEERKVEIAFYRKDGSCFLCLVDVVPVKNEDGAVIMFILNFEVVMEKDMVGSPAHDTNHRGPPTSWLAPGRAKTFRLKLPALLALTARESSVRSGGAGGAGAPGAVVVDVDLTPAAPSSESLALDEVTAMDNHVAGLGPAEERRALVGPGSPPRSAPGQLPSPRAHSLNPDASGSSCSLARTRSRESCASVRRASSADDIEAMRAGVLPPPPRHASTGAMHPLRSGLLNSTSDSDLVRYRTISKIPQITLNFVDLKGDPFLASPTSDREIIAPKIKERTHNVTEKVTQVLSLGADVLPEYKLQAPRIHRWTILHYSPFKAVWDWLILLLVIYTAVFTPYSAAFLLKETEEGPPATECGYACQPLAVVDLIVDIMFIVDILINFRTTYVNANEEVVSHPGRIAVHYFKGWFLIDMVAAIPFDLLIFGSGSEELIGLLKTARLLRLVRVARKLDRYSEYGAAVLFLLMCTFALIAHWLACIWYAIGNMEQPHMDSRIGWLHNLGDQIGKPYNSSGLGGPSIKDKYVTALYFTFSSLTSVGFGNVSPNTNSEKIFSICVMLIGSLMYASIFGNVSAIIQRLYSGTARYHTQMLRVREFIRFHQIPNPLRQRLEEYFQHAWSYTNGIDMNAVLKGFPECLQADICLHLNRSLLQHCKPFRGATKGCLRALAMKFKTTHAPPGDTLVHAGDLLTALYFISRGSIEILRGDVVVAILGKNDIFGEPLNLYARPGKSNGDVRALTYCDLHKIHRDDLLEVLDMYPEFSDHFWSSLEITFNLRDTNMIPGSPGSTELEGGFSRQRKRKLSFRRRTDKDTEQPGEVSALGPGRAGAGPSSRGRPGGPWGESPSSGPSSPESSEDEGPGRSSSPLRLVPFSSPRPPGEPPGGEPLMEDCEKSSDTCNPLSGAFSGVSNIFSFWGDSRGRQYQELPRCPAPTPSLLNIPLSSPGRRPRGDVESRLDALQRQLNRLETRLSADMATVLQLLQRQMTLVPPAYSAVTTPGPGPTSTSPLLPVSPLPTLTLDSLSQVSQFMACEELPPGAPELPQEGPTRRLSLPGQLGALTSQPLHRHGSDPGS

As usually defined, the IC50 is the concentration needed to halve the response being measured. For `Cn1nc(C2CCC(=O)NC2=O)c2cccc(C#CCO[C@@H]3CCN(C[C@H]4CC[C@H](n5cc(NC(=O)c6cnn7ccc(N8C[C@H]9C[C@@H]8CO9)nc67)c(C(F)F)n5)CC4)C[C@@H]3F)c21` (stereo partly drawn) [Compound 10], the IC50 in series [1] is greater than 30 µM. Also, the AUC(0-t) in series [2] (male, ICR, mouse, po, 10 mg/kg, read-out: AUC0-t) amounted to 17500 ± 5260 ng·h/mL. For the same molecule, the “Remaining IRAK4 protein IRAK4%” value in series [3] (100 nM, relative to vehicle control) is on record as “A (A ≤ 10%)”.
The DC50 is the midpoint of the concentration-degradation curve. A lower DC50 goes with a more potent degrader. Take `Cn1nc(C2CCC(=O)NC2=O)c2cccc(C#CCO[C@@H]3CCN(C[C@H]4CC[C@H](n5cc(NC(=O)c6cnn7ccc(N8CCO[C@@H](CO)C8)nc67)c(C(F)F)n5)CC4)C[C@@H]3F)c21` (single isomer, unassigned) [Chiral isomer 1 of compound 19]: the concentration for half-maximal inhibition (IC50) in series [1] was greater than 20 µM. In series [2], this molecule registered an AUC(0-t) of 13407 ± 4034 ng·h/mL. In addition, the DC50 in series [3] is less than 0.02 µM.

Values taken from patent publication US20250084101A1, “COMPOUND FOR INHIBITING AND DEGRADING IRAK4, AND PHARMACEUTICAL COMPOSITION AND PHARMACEUTICAL APPLICATION THEREOF” (XIZANG HAISCO PHARMACEUTICAL CO., LTD., priority 2022, published 2025).
